This is an account of results in patent US5827846A, “Carbazole derivatives as agents against multi-drug resistance” (Novartis Corp., priority 1994, dated 1998).

The subject of experiment [1] is KB-8511 (drug-resistant, P-glycoprotein [Pgp] overexpressing) cells. Kind of experiment: Inhibition of cell growth of drug-resistant KB-8511 cells (methylene blue staining, 4 days). Particulars: 5760 min. The format is cell-based, Human. How it is done: The KB-8511 cells are kept as stock in the presence of 10 ng/ml of the antineoplastically active substance Colcemid (demecolcine). […] The plates are then incubated under the conditions mentioned above for 4 days. […] After washing, the dye is eluted with 3% (w/v) aqueous hydrochloric acid. The optical density (OD) per well, which is directly proportional to the number of cells, is then measured with a photometer at 665 nm. The IC50 values are calculated by means of a computer system, using the formula

In a further experiment the test system is human KB-8511 tumours. Kind of experiment: In vivo antitumour activity against multidrug-resistant KB-8511 tumours in nude mice. Set-up: species or system female Balb/c nude mice. Particulars: for T/C [%] (median tumour volumes treated versus control): KB-8511 tumour. How it is done:
(§1) The determination of the in vivo antitumour activity of test substance B (=N-benzoyl-6-benzyl-staurosporin) against the drug-sensitive parental KB-31 and a multidrug-resistant variant of the KB-31, i.e. the multidrug-resistant variant KB-8511, tumours is carried out in female Balb/c nude mice (Bomholdgaard, Copenhagen, Denmark) bearing serially passaged (minimum of three consecutive transplantations) either the human parental drug-sensitive KB-31 tumours or the human KB-8511 tumours. The KB-8511 tumours overexpress Pgb, the product of the mdr-1 gene (S. Akiyma et al., "Isolation and genetic characterization of human KB cell lines resistant to multiple drug", Somatic Cell and Mol. Gen. 11, 117-126 [1985]). Tumour fragments of approximately 25 mg are transplanted into the left flank of each animal (n=6 per group). […] Tumour growth is monitored twice weekly by measuring perpendicular diameters. Tumour volumes are determined as described by T. Meyer et al., Int. J. Cancer 43, 851-856 (1989), and expressed as relative tumour size (i.e. the increase in tumour volume compared with the tumour volume at the start of the treatment).

For experiment [2], the system named is human parental drug-sensitive KB-31 tumours. Kind of experiment: In vivo antitumour activity against drug-sensitive KB-31 tumours in nude mice. Set-up: species or system female Balb/c nude mice. Particulars: KB-31 tumour. How it is done:
as §1

Structures are written as SMILES.

On to `CC[C@]1(O)C[C@@H]2CN(CCc3c([nH]c4ccccc34)[C@@](C(=O)OC)(c3cc4c(cc3OC)N(C)[C@H]3[C@@](O)(C(=O)OC)[C@H](OC(C)=O)[C@]5(CC)C=CCN6CC[C@]43[C@@H]65)C2)C1` [A, vinblastine], for which the “% growth of KB 8511 cells” value in experiment [1] (A 2.34 ng/ml alone) came to 101%; in experiment [1] (A 4.69 ng/ml alone), 101%; in experiment [1] (A 9.38 ng/ml alone) it was 98%; in experiment [1] (A 18.8 ng/ml alone), 98%; in experiment [1] (A 37.5 ng/ml alone), 98%; in experiment [1] (A 75.0 ng/ml alone), 90%. Also, the “% growth of KB 8511 cells” value was found to be 66% in experiment [1] (A 150 ng/ml alone) and 14% in experiment [1] (A 300 ng/ml alone).
`CO[C@@H]1[C@H](N(C)C(=O)c2ccccc2)C[C@H]2O[C@]1(C)n1c3ccccc3c3c4c(c5c6ccccc6n2c5c31)C(=O)N(Cc1ccccc1)C4` [B, N-benzoyl-6-benzyl-staurosporin]: the “Sensitisation of KB-8511 tumours to adriamycin” value in the experiment on human KB-8511 tumours (25 mg/kg p.o. 4 hours prior to adriamycin 9.0 mg/kg i.v.) was “sensitises the multi-drug resistant KB-8511 tumours to adriamycin”. Further, the “T/C [%] (median tumour volumes treated versus control)” value is listed as 93% with human KB-8511 tumours (1 × 25 mg/kg p.o.) and 91% in experiment [2] (1 × 25 mg/kg p.o.). Further, the “% growth of KB 8511 cells” value came to 92% in experiment [1] (B 0.1 μmol alone), 95% in experiment [1] (B 1 μmol alone (Example 10)) and 82% in experiment [1] (B 1 μmol alone (Example 11)).
On to `COc1cccc2c1C(=O)c1c(O)c3c(c(O)c1C2=O)C[C@@](O)(C(=O)CO)C[C@@H]3O[C@H]1C[C@H](N)[C@H](O)[C@H](C)O1` [C, adriamycin], for which the “T/C [%] (median tumour volumes treated versus control)” value in the experiment with human KB-8511 tumours (1 × 9 mg/kg i.v.) is recorded as 89%; in experiment [2] (1 × 9 mg/kg i.v.), 13%. Besides, the Maximal tumour regression in experiment [2] (adriamycin 1×9 mg/kg i.v. alone, on day 5) was 24%.
